{"source": "patent US11849742B2", "about": "“Tasteful natural sweetener and flavor” (priority 2018, dated 2023)", "key": {"[1]": {"settings": "non-sugar natural sweeteners of Momordica grosvenori juice or extract; cited from earlier work"}, "[2]": {"assay": "Kinetics of reaction: degradation of Phe and Reb-A, Gluc, Xyl, Suc at various pH-conditions (HPLC/MS)", "assay_type": "physicochemical", "procedure": "Quantitative evaluation was performed using external standardization.\nKinetics of Reaction in dependence of pH-conditions"}, "[3]": {"assay": "Assay to test reducing power (iron-III reduction)", "settings": "iron-III reduction and radical scavenging (FIG. 49, FIG. 50); amino acids and Reb-A, 100° C., pH 7.8", "procedure": "0.2 M Sodium phosphate buffer, pH=6.6; 500 mg Potassium ferric(III)cyanide/50 mL water, 10% Trichloroacetic acid; 20 mg Iron-III-Chloride/20 mL water; Calibration samples were prepared with Ascorbic acid in a concentration of 0-100 μg/mL 0.2 M Sodium phosphate buffer, pH=6.6 (freshly prepared); as negative control sample water was used.\nSamples in aqueous solution were used as such or diluted in 0.2 M Sodium phosphate buffer, pH=6.6.\nA 1 mL sample (or calibration standard) was mixed with 1 mL 0.2 M Sodium phosphate buffer, pH=6.6 and 1 ml Potassium ferricyanide solution. The sample was incubated and protected from light at 50° C. for 20 min.\nTo the solution was added 1 mL Trichloroacetic acid with thorough mixing.\nA 1 mL of the mixture was diluted with 1 ml H2O and 0.2 ml Iron-III-chloride and reacted for 10 minutes; The absorbance was then determined at 700 nm against H2O.\n10 mM of amino acid and/or 10 mM sugar were dissolved in 10 ml 0.1 mM KH2PO4-buffer, pH=7.8. […]\n1 ml sample (or calibration standard) solution) was mixed with 0.2 M Sodium phosphate buffer (pH=6.6) and 1 ml Potassium ferric(III)cyanide solution in water (1% w/v) and incubated at 50° C. for 20 minutes. […] The sample was incubated for 10 minutes and absorbance read at 700 nm against a water control. […]\nQuantification was performed by linear regression of calibration test results for ascorbic acid. […]"}}, "data": [{"compound": "OC[C@@H](O)[C@@H](O)[C@H](O)[C@H](O)CO", "note": "[D-mannitol]", "values": [{"measurement": "natural sweetness, times of that of sugar", "setting": "[1]", "result": "0.55-0.65 times of that of sugar"}]}, {"compound": "N[C@@H](CCC(=O)O)C(=O)O", "note": "[Glu]", "values": [{"measurement": "% degradation", "setting": "[2]; pH = 5.5", "result": 3.65, "unit": "%"}, {"measurement": "% degradation", "setting": "[2]; pH = 7.0", "result": 4.6, "unit": "%"}, {"measurement": "% degradation", "setting": "[2]; pH = 8.5", "result": 7.62, "unit": "%"}]}, {"compound": "C=C1C[C@@]23CC[C@H]4[C@@](C)(CCC[C@@]4(C)C(=O)O[C@@H]4O[C@H](CO)[C@@H](O)[C@H](O)[C@H]4O)[C@@H]2CC[C@]1(O[C@@H]1O[C@H](CO)[C@@H](O)[C@H](O[C@@H]2O[C@H](CO)[C@@H](O)[C@H](O)[C@H]2O)[C@H]1O[C@@H]1O[C@H](CO)[C@@H](O)[C@H](O)[C@H]1O)C3", "note": "[Reb-A, Rebaudioside A]", "values": [{"measurement": "anti-oxidant properties", "setting": "[3]", "result": "substantial anti-oxidant properties"}]}, {"compound": "C[C@H](CC[C@@H](O[C@@H]1O[C@H](CO)[C@@H](O)[C@H](O)[C@H]1O[C@@H]1O[C@H](CO)[C@@H](O)[C@H](O)[C@H]1O)C(C)(C)O)[C@H]1CC[C@@]2(C)[C@H]3CC=C4[C@@H](CC[C@H](O[C@@H]5O[C@H](CO[C@@H]6O[C@H](CO)[C@@H](O)[C@H](O)[C@H]6O)[C@@H](O)[C@H](O)[C@H]5O)C4(C)C)[C@]3(C)[C@H](O)C[C@]12C", "note": "[mogroside IV]", "values": [{"measurement": "natural sweetness, times of that of sugar", "setting": "[1]", "result": "126 times of that of sugar"}]}, {"compound": "C[C@H](CC[C@@H](O[C@@H]1O[C@H](CO[C@@H]2O[C@H](CO)[C@@H](O)[C@H](O)[C@H]2O)[C@@H](O)[C@H](O)[C@H]1O[C@@H]1O[C@H](CO)[C@@H](O)[C@H](O)[C@H]1O)C(C)(C)O)[C@H]1CC[C@@]2(C)[C@@H]3CC=C4[C@@H](CC[C@H](O[C@@H]5O[C@H](CO[C@@H]6O[C@H](CO)[C@@H](O)[C@H](O)[C@H]6O)[C@@H](O)[C@H](O)[C@H]5O)C4(C)C)[C@]3(C)[C@H](O)C[C@]12C", "note": "[mogroside V]", "values": [{"measurement": "natural sweetness, times of that of sugar", "setting": "[1]", "result": "256-344 times of that of sugar"}]}]}
